In patent US20240238425A1, “HSD17B13 Inhibitors and/or Degraders” (Pfizer Inc., priority 2022, published 2024):
Structures can show the parent of a compound that is named as a salt.

Test system: HiBiT-HSD17β13 fusion protein (N-terminal HiBiT-tagged HSD17β13 isoform D) in Huh7 HiBiT-HSD17β13 OE cells
Assay: Whole-cell Huh7-HSD17B13 HiBiT assay (degrader potency and maximal efficacy, luminescence readout)
Type: cell-based, human
Details: 24 hour incubation, geometric mean, * = geometric mean for all forms tested (parent and salt forms); for DC50: read-out: Huh7_HIBIT-HSD17β13_DC50 GMean DC50; for Huh7_HIBIT-HSD17β13_DC50 GMean Asymptote Maximum: max. concentration 1 μM
How it was run: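 Huh7 cells stably overexpressing N-terminal HiBiT-tagged HSD17β13 isoform D, clone matched to primary hepatocyte expression, were exposed to an 11-point, 1 in 3.162 dilution series (top 1 μM final) for 24 h at 37° C. Lytic HiBiT luminescence was normalised to DMSO and parental-cell controls; DC50 from four-parameter logistic fit, with CellTiter-Glo counter screen.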

Row | Compound | DC50 | Huh7_HIBIT-HSD17β13_DC50 GMean Asymptote Maximum
1 | Cn1c(=O)n(C2CCC(=O)NC2=O)c2ccc(CN3CCOC4(CCN(c5ccc6cn([C@H]7CC[C@H](CNC(=O)c8cc(F)c(O)c(F)c8F)CC7)nc6c5)CC4)C3)cc21 (mixture of isomers) [Example 77, N-{[(1r,4r)-4-{6-[4-({1-[(3RS)-2,6-dioxopiperidin-3-yl]-3-methyl-2-oxo-2,3-dihydro-1H-benzimidazol-5-yl}methyl)-1-oxa-4,9-diazaspiro[5.5]undecan-9-yl]-2H-indazol-2-yl}cyclohexyl]methyl}-2,3,5-trifluoro-4-hydroxybenzamide, trifluoroacetate salt] | 0.93 nM | 86%
2 | O=C1CCN(c2cnn3cc(CCCN4CCN(c5nccc(-c6nc([C@]78CC[C@](CNC(=O)c9cc(F)c(O)c(F)c9F)(CC7)CC8)no6)n5)CC4)ccc23)C(=O)N1 [Example 61, N-[(4-{5-[2-(4-{3-[3-(2,4-dioxo-1,3-diazinan-1-yl)pyrazolo[1,5-a]pyridin-6-yl]propyl}piperazin-1-yl)pyrimidin-4-yl]-1,2,4-oxadiazol-3-yl}bicyclo[2.2.2]octan-1-yl)methyl]-2,3,5-trifluoro-4-hydroxybenzamide, trifluoroacetate salt] | 2.6 nM | 72%
3 | Cn1c(=O)n(C2CCC(=O)NC2=O)c2ccc(CCCN3CCN(c4cc5cn([C@H]6CC[C@H](CNC(=O)c7cc(F)c(O)c(F)c7F)CC6)nc5cn4)CC3)cc21 (mixture of isomers) [Example 93, N-{[(1r,4r)-4-{5-[4-(3-{1-[(3RS)-2,6-dioxopiperidin-3-yl]-3-methyl-2-oxo-2,3-dihydro-1H-benzimidazol-5-yl}propyl)piperazin-1-yl]-2H-pyrazolo[3,4-c]pyridin-2-yl}cyclohexyl]methyl}-2,3,5-trifluoro-4-hydroxybenzamide, formate salt] | 0.69 nM | 83%
4 | Cc1ccc(C(=O)N2CCC3(CC2)CCN(c2ncc(-c4ccc5cn([C@H]6CC[C@H](CNC(=O)c7cc(F)c(O)c(F)c7F)CC6)nc5c4)cn2)C3)cc1N1CCC(=O)NC1=O [Example 63, N-({(1r,4r)-4-[6-(2-{8-[3-(2,4-dioxo-1,3-diazinan-1-yl)-4-methylbenzoyl]-2,8-diazaspiro[4.5]decan-2-yl}pyrimidin-5-yl)-2H-indazol-2-yl]cyclohexyl}methyl)-2,3,5-trifluoro-4-hydroxybenzamide] | 2.6 nM | 80%
5 | Cc1ccc(C(=O)N2CCC(CN3CCN(c4ncc(-c5ccc6cn([C@H]7CC[C@H](CNC(=O)c8cc(F)c(O)c(F)c8F)CC7)nc6c5)cn4)CC3)CC2)cc1N1CCC(=O)NC1=O [Example 45, N-{[(1r,4r)-4-(6-{2-[4-({1-[3-(2,4-dioxo-1,3-diazinan-1-yl)-4-methylbenzoyl]piperidin-4-yl}methyl)piperazin-1-yl]pyrimidin-5-yl}-2H-indazol-2-yl)cyclohexyl]methyl}-2,3,5-trifluoro-4-hydroxybenzamide, trifluoroacetate salt] | 3.1 nM | 76%
6 | Cl.Cn1c(=O)n(C2CCC(=O)NC2=O)c2ccc(CN3CCN(c4ncc(-c5ccc6cn([C@H]7CC[C@H](CNC(=O)c8cc(F)c(O)c(F)c8F)CC7)nc6c5)cn4)CC3)cc21 (mixture of isomers) [Example 26, N-{[(1r,4r)-4-(6-{2-[4-({1-[(3RS)-2,6-dioxopiperidin-3-yl]-3-methyl-2-oxo-2,3-dihydro-1H-benzimidazol-5-yl}methyl)piperazin-1-yl]pyrimidin-5-yl}-2H-indazol-2-yl)cyclohexyl]methyl}-2,3,5-trifluoro-4-hydroxybenzamide, hydrochloride salt] | 0.5 nM | 82%

Further lines, with some results ahead:

Row | DC50 | Compound | Huh7_HIBIT-HSD17β13_DC50 GMean Asymptote Maximum
7 | 0.36 nM | COc1nc(-c2ccc3cn([C@H]4CC[C@H](CNC(=O)c5cc(F)c(O)c(F)c5F)CC4)nc3c2)nc2c1CN(CCCc1ccc3c(c1)n(C)c(=O)n3C1CCC(=O)NC1=O)C2 (mixture of isomers) [Example 126, N-{[(1r,4r)-4-{6-[6-(3-{1-[(3RS)-2,6-dioxopiperidin-3-yl]-3-methyl-2-oxo-2,3-dihydro-1H-benzimidazol-5-yl}propyl)-4-methoxy-6,7-dihydro-5H-pyrrolo[3,4-d]pyrimidin-2-yl]-2H-indazol-2-yl}cyclohexyl]methyl}-2,3,5-trifluoro-4-hydroxybenzamide, trifluoroacetate salt] | 84%
8 | 3.6 nM | Cc1ccc(C(=O)N2CCC3(CCC(N4CCN(c5ccc6cn([C@H]7CC[C@H](CNC(=O)c8cc(F)c(O)c(F)c8F)CC7)nc6c5)CC4)CC3)C2)cc1N1CCC(=O)NC1=O (some centres unmarked) [Example 104, N-({(1r,4r)-4-[6-(4-{2-[3-(2,4-dioxo-1,3-diazinan-1-yl)-4-methylbenzoyl]-2-azaspiro[4.5]decan-8-yl}piperazin-1-yl)-2H-indazol-2-yl]cyclohexyl}methyl)-2,3,5-trifluoro-4-hydroxybenzamide, trifluoroacetate salt] | 78%
9 | 0.97 nM | Cc1ccc(C(=O)N2CCC3(CCC(n4cc(-c5ccc6cn([C@H]7CC[C@H](CNC(=O)c8cc(F)c(O)c(F)c8F)CC7)nc6c5)cn4)CC3)CC2)cc1N1CCC(=O)NC1=O [Example 112, N-({(1r,4r)-4-[6-(1-{3-[3-(2,4-dioxo-1,3-diazinan-1-yl)-4-methylbenzoyl]-3-azaspiro[5.5]undecan-9-yl}-1H-pyrazol-4-yl)-2H-indazol-2-yl]cyclohexyl}methyl)-2,3,5-trifluoro-4-hydroxybenzamide, formate salt] | 81%
10 | 0.15 nM | Cn1c(=O)n(C2CCC(=O)NC2=O)c2ccc(CCCN3CCN(c4cnc(-c5ccn6cc([C@]78CC[C@](CNC(=O)c9cc(F)c(O)c(F)c9F)(CC7)CC8)nc6c5)nc4)CC3)cc21 (mixture of isomers) [Example 120, N-{[4-(7-{5-[4-(3-{1-[(3RS)-2,6-dioxopiperidin-3-yl]-3-methyl-2-oxo-2,3-dihydro-1H-benzimidazol-5-yl}propyl)piperazin-1-yl]pyrimidin-2-yl}imidazo[1,2-a]pyridin-2-yl)bicyclo[2.2.2]octan-1-yl]methyl}-2,3,5-trifluoro-4-hydroxybenzamide, trifluoroacetate salt] | 82%
